Assay results reported in publication PMC6698794, “Catalytic Knockdown of miR-21 by Artificial Ribonuclease: Biological Performance in Tumor Model” (Frontiers in Pharmacology, 2019).

Legend:
[1] = test system: miR-21; assay: miR-21 level in transfected RLS40 cells by PCR analysis; format: cell-based, mouse
Procedure: (§1) RLS40 ascites were taken from CBA mice intraperitoneally injected with tumor cells (2 × 10^6 in 0.2 ml buffered saline) into their abdominal cavities. RLS40 cells, isolated from ascites fluid by filtration through LSM were divided into seven portions: 1) untreated cells; 2) the cells incubated with Lipofectamine; the cells transfected with 1 µM of 3) h-ODN, 4) 2′-OMe, 5) Inh, 6) miR-21-miRNase, or 7) luc-POC each. After 4 h of transfection, cell suspensions (0.1 ml, 2 × 10^6 cells) were intramuscularly inoculated into the right lower limb of CBA mice for solid tumor development. As soon as tumors began to be palpable, the tumor volumes were measured every 2–3 days using calipers. Tumor volumes were calculated as V = (π/6 × length × width × height). Hepatic index was estimated as (liver weight/mouse weight) × 100% and as 5.0% for healthy CBA mice. Tumor doubling time (DT) was estimated as DT = (t − t0) × ln 2/(ln V − ln V0), where (t − t0) indicates the length of time between two measurements of tumor size and V0 and V denote the tumor volume at two points of the measurement ([Ozono et al., 2004]).
(§2) Supplementary Figure 3. Expression level of miR-21 and PTEN and PDCD4 protein level in RLS40 cells after transfection with 1 µM of luc-POC or miR-21-miRNase using LipofectamineTM 2000. (A) Expression level of miR-21 24 h after transfection. The expression of miRNAs was normalized to U6. […]

[2] = test system: PDCD4; assay: PDCD4 protein level in transfected RLS40 cells by Western blot; format: cell-based, mouse; conditions: 1 µM, 72 h after transfection, GAPDH internal control
Procedure: as §1, §2

[3] = test system: lymphosarcoma cells; conditions: ref Patutina et al., 2017a; cited from earlier work
Excerpt: Short functional non-coding microRNAs are implicated in many types of cancer ([Frixa et al., 2015]; [O’Bryan et al., 2017]; [Zhou et al., 2017]). Amongst many miRNAs identified as important inducers of oncogenesis, miR-21 represents an extreme oncomiR, which is strongly involved in tumor onset and progression for many types of malignancies ([Huang et al., 2013]; [Lianidou et al., 2016]; [Yu et al., 2018]). Since miR-21 is abnormally overexpressed in major types of tumors, this oncomiR is the most considered target for anti-miRNA inhibitory studies. However, depending on the origin of tissue an ...

[4] = Nuclease resistance assay in DMEM with 10% fetal bovine serum; format: in vitro ADME; conditions: 0.1 µg/µl, DMEM with 10% FBS, 37°C; 12% PAAG/8M urea gel, Stains-All
Procedure: Oligonucleotides or conjugates (0.1 µg/µl) were incubated at 37°C in Dulbecco’s Modified Eagle Medium (DMEM) (Sigma, USA) with 10% fetal bovine serum (FBS; GE Healthcare, USA). Reactions were quenched in urea (8M) and immediately frozen in liquid nitrogen, prior to analysis of thawed samples in 12% PAAG/8M urea gels, using Tris-Borate-EDTA (TBE) as running buffer, Stains-All (MP Biomedicals, USA) and photographic gel documentation (VilberLourmat, France).

| Substance | Decrease in miR-21 level ([1]; RLS40 cells, 1 µM, 24 h after transfection, normalized to U6) [fold] | Reduction in miR-21 level ([1]; single treatment of tumor cells prior to transplantation) [%] | Increase in PDCD4 protein level [2] [fold] | Inhibition of tumor cell proliferation [3] [%] | Survival (intact) in serum-containing medium [4] |
| --- | --- | --- | --- | --- | --- |
| acetyl-[(LeuArg)2Gly]2-aminohexyl-AGTCTGATAAGCTACAAGTCAGCGAAAGCTGACTTG [miR-21-miRNase, peptide acetyl-[(LeuArg)2Gly]2 conjugated through aminohexyl linker to 5′-end of miR-21-targeted hairpin oligodeoxyribonucleotide] | 2 | 50 | 2.4 | 50 |  |
| h-ODN: miR-21-targeted hairpin deoxyribooligonucleotide AGTCTGATAAGCTACAAGTCAGCGAAAGCTGACTTG, unconjugated with the peptide (DNA, backbone and methylation of C not given here; hairpin at 3' end, unconjugated) |  |  |  |  | a few hours |
